The OPERA property sets (Mansouri et al. 2018)
Peptide text beside a SMILES is read from it.

Structure (SMILES) | logP
CCCCCCCC(=O)O | 3.05
CCNC(=O)c1ccc(S(N)(=O)=O)cc1 | 0.03
CCCC1(CC)C(=O)NC(=O)NC1=O | 0.66
CC(C)(C(=O)O)C(=O)O | 0.39
CCNC(=O)c1ccccc1 | 1.28
CC1CO1 (configuration not stated) | 0.03
Nc1nc(=O)c2ccccc2o1 | 0.27
CC(C)CCC(=O)c1ccoc1 | 2.76
CC1CCCC1 | 3.37
CCCOP(=O)(OCCC)OCCC | 1.87
NC(=O)c1ccc(O)cc1 | 0.33
O=C(Oc1ccccc1)n1c(=O)[nH]cc(F)c1=O | 1.73
O=C(NCc1ccccc1)c1ccco1 | 1.81
c1ccc(CN2CCOCC2)cc1 | 1.58
COCOC | 0
NCCCCc1ccncc1 | 0.86
CC(=O)OCC(COC(C)=O)OC(C)=O | 0.25
CCNC(N)=O | -0.74
O=c1[nH]cnc2n[nH]nc12 | -1.97
Cc1[nH]cnc1CSCCNc1cc[nH]c(=O)n1 | -0.4
Cc1[nH]cnc1CSCCNc1[nH]ccc(=O)c1[N+](=O)[O-] | -0.2

Structure (SMILES) | logP
c1ccc(Cc2cc(-c3ccccc3)nnc2NCCN2CCOCC2)cc1 | 3.65
CC(=O)c1cccc(S(I)=C(N(C)C)N(C)C)c1 (configuration not stated) | -0.88
FC(F)(F)c1nc2ccc(Br)cc2[nH]1 | 3.57
CC(=O)N(C)c1ccc(O)cc1 | 0.61
CC(C)(C)C | 3.11
CC(=O)Oc1ccccc1 | 1.49
NC(=O)Cc1ccncc1 | -0.65
Nc1ccc(C(=O)Oc2ccccc2Br)c(O)c1 | 3.74
CCCCOC(=O)N(C)SN(C)C(=O)Oc1cccc2c1OC(C)(C)C2 | 4.7
O=C(CI)NC(CO)C(O)c1ccc([N+](=O)[O-])cc1 (configuration not stated) | 1.03
CC(=O)c1ccccc1OCC(=O)O | 1.25
COC(=O)CCCCCC(=O)OCC(=O)C1(O)CCC2C3CCC4=CC(=O)CCC4(C)C3C(O)CC21C (configuration not stated) | 3.7
O=C(OCc1ccccc1)n1c(=O)[nH]cc(F)c1=O | 1.42
NCC(F)(F)F | 0.24
OCCOCCOCCN1CCC(=C(c2ccccc2)c2ccccc2)CC1 | 3.78
CP(C)c1ccccc1 | 2.57
c1ccc2c(c1)Cc1ccccc1-2 | 4.18
CC(=O)c1ccccc1C(=O)O | 0.81
CCCCC(=O)OCC(=O)[C@@]1(OC(=O)CCCC)[C@@H](C)C[C@H]2[C@@H]3CCC4=CC(=O)C=C[C@]4(C)[C@@]3(F)[C@@H](O)C[C@@]21C | 5.26
CC[C@H](C)[C@H](NC(=O)[C@H](Cc1c[nH]c2ccccc12)NC(C)=O)C(=O)NCC(N)=O (Ac-Trp-Ile-Gly-NH2) | 0.62
CN(C)C(N(C)C)=S(I)c1ccc(Cl)c(Cl)c1 (configuration not stated) | 0.49

Structure (SMILES) | logP
O=S(=O)(c1ccccc1)c1ccc2ncccc2c1 | 2.57
CC(C)C(=O)C(C)C | 1.86
C=CCC1(CC)C(=O)NC(=O)NC1=O | 0.95
CCC(=O)O[C@]1(c2ccccc2)CCN(C)C[C@@H]1C | 2.83
O=[N+]([O-])c1ncn(CC(O)CN2CC2)n1 (configuration not stated) | -0.72
CCCCCOC(N)=O | 1.35
O=[N+]([O-])c1ccc(Cl)c(Cl)c1 | 3.12
OC[C@H]1O[C@@H](n2cnc3c(O)ncnc32)[C@H](O)[C@@H]1O | -2.1
CCCCCC(C)=O | 1.98
OCC(O)COc1ccccc1 (configuration not stated) | 0.7
C=C1C(=O)OC2C1CCC(C)C1(O)C=CC(=O)C21C (configuration not stated) | 0.77
Clc1cc(Cl)cc(Cl)c1 | 4.19
COC(=O)[C@@H]1C2CCC(C[C@@H]1OC(=O)c1ccccc1)N2C (some centres not stated) | 2.3
CC[C@H](C)[C@H](NC(C)=O)C(=O)N[C@@H](C)C(=O)N[C@H](C(N)=O)C(C)C | -0.21
CN(C)S(=O)(=O)c1ccc(N)cc1 | 0.67
CCOC(=O)C(Cl)(Cl)Cl | 2.39
Oc1c(Cl)cccc1Cl | 2.75
O=C(NCCO)C(F)(F)Cn1ccnc1[N+](=O)[O-] | -0.52
CCC(C(c1ccc(OC)cc1)c1ccc(OC)cc1)[N+](=O)[O-] (configuration not stated) | 4.45
Oc1nc(Cl)c(Cl)cc1Cl | 3.21
O=CNc1ccc([N+](=O)[O-])cc1 | 1.43

Structure (SMILES) | logP
CNC(=O)N(C)c1ccccc1 | 1.02
COc1ccc2c(c1)OC(C)(C)C=C2 | 3.35
c1cnc2ncncc2n1 | -0.58
NC(=O)Nc1cccc(Cl)c1 | 1.82
O=S(=O)(N=[N+]([O-])c1ccccc1)c1ccccc1 | 2.87
O=C(O)c1cccc(C(=O)O)c1 | 1.66
CC(C)C(O)C(C(=O)O)c1ccc(-c2ccccc2)cc1 (configuration not stated) | 3.84
CN(C)N=Nc1ccccc1 | 2.59
Nc1cccc(O)c1 | 0.21
CNC(=O)ON=C(SC)C(=O)N(C)C | -0.47
Brc1ccsc1Br | 3.53
Nc1ccc(C(=O)Oc2ccccc2F)c(O)c1 | 3.29
CC(C)OC(=O)C(C(=O)OC(C)C)=C1SCCS1=O (configuration not stated) | 1.6
O=C(NP(=O)(N1CC1)N1CC1)c1ccc(Br)cc1 | 1.63
CC(C)c1cccc(C(C)C)c1NC(N)=O | 2.26
CNC(=O)c1ccoc1 | 0.34
O=C(NP(=O)(N1CC1)N1CC1)c1cccc(Br)c1 | 1.43
NC(=O)c1cccc([N+](=O)[O-])c1 | 0.77
C(=Cc1ccccn1)c1ccccn1 | 2.11
